Key:
Test in all cases: Bliss excess, mean over the matrix (fraction); higher = more synergy
[1] = tested on: TE-4 (Esophageal Squamous Cell Carcinoma)
In short: (§1)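 After 24 hours at 37°C and 5% CO2 in 1536-well plates, cells in DMEM/F12 or RPMI plus 10% FBS received two-drug dose matrices for 72 hours. Viability came from CellTiter-Glo 2.0 luminescence and was scaled as inhibition, anchored at 0 by vehicle wells and at 1 by blank wells. Combination Emax is taken as the second-highest inhibition in the matrix, and Bliss excess as the observed combination effect less EA + EB − EA·EB, with EA and EB the single-agent effects.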

[2] = tested on: HO-1-u-1 (Oral Cavity Carcinoma)
In short: as §1

[3] = tested on: MDA-MB-468 (Breast Carcinoma)
In short: as §1

[4] = tested on: KARPAS-231 (B-Cell Non-Hodgkin's Lymphoma)
In short: as §1

[5] = tested on: EN (Endometrial Carcinoma)
In short: as §1

[6] = tested on: PCI-30 (Head and Neck Carcinoma)
In short: as §1

[7] = tested on: UMC-11 (Other Solid Carcinomas)
In short: as §1

[8] = tested on: HMV-II (Melanoma)
In short: as §1

[9] = tested on: NCI-H747 (Colorectal Carcinoma)
In short: as §1

[10] = tested on: LB771-HNC (Head and Neck Carcinoma)
In short: as §1

[11] = tested on: SUP-T1 (T-Lymphoblastic Leukemia)
In short: as §1

[12] = tested on: LoVo (Colorectal Carcinoma)
In short: as §1

[13] = tested on: OVCAR-8 (Ovarian Carcinoma)
In short: as §1

[14] = tested on: 639-V (Bladder Carcinoma)
In short: as §1

[15] = tested on: NCI-H69 (Small Cell Lung Carcinoma)
In short: as §1

[16] = tested on: CAPAN-1 (Pancreatic Carcinoma)
In short: as §1

[17] = tested on: NB14 (Neuroblastoma)
In short: as §1

[18] = tested on: RT-112 (Bladder Carcinoma)
In short: as §1

[19] = tested on: HARA (Squamous Cell Lung Carcinoma)
In short: as §1

[20] = tested on: Hs-633T (Other Solid Carcinomas)
In short: as §1

Structure (SMILES) | Bliss excess [1] | Bliss excess [2] | Bliss excess [3] | Bliss excess [4] | Bliss excess [5] | Bliss excess [6] | Bliss excess [7] | Bliss excess [8] | Bliss excess [9] | Bliss excess [10] | Bliss excess [11] | Bliss excess [12] | Bliss excess [13] | Bliss excess [14] | Bliss excess [15] | Bliss excess [16] | Bliss excess [17] | Bliss excess [18] | Bliss excess [19] | Bliss excess [20]
NC1(C(=O)N[C@@H](CCO)c2ccc(Cl)cc2)CCN(c2ncnc3[nH]ccc23)CC1 [Capivasertib] + CC(=O)c1c(C)c2cnc(Nc3ccc(N4CCNCC4)cn3)nc2n(C2CCCC2)c1=O [Palbociclib] (first compound max 10 µM, 7x7, partner max 10 µM) | 0.0094 | -0.0234 | -0.0075 | -0.044 | -0.0165 | -0.0554 | 0.039 | -0.0138 | -0.0032 | -0.0781 | -0.0239 | -0.03 | -0.0017 | -0.0612 | -0.0632 | -0.0163 | 0.0419 | -0.0324 | 0.0388 | 0.0179
CC1(C)CCC(CN2CCN(c3ccc(C(=O)NS(=O)(=O)c4ccc(NCC5CCOCC5)c([N+](=O)[O-])c4)c(Oc4cnc5[nH]ccc5c4)c3)CC2)=C(c2ccc(Cl)cc2)C1 [Venetoclax] + CCN(CCO)CCCOc1ccc2c(Nc3cc(CC(=O)Nc4cccc(F)c4)[nH]n3)ncnc2c1 [AZD2811] (first compound max 1 µM, 7x7, partner max 1 µM) | -0.005 | -0.0297 | -0.086 | -0.0484 | -0.0017 | -0.0231 | -0.0398 | 0.0208 | -0.0429 | -0.028 | -0.0012 | -0.0359 | 0.0431 | -0.0262 | 0.0928 | -0.042 | -0.0361 | 0.045 | 0.0345 | -0.0086
Cc1c2c(nn1C)CSCc1cc(n(C)n1)CSc1cc(c3ccccc3c1)OCCCc1c(C(=O)O)n(C)c3c-2c(Cl)ccc13 [AZD5991] + C1CN(CCC1(C(=O)N[C@@H](CCO)C2=CC=C(C=C2)Cl)N)C3=NC=NC4=C3C=CN4 [Capivasertib] (first compound max 1 µM, 7x7, partner max 3 µM) | 0.0626 | 0.0242 | 0.0256 | -0.0402 | -0.0547 | 0.0204 | 0.0253 | -0.0307 | 0.0106 | 0.0612 | -0.0218 | -0.069 | 0 | -0.0036 | -0.026 | -0.0318 | 0.0283 | 0.0563 | -0.0041 | 0.0123
COc1cccc(OCCCN)c1-c1cc(Nc2cnc(C#N)cn2)n[nH]1 [Prexasertib] + CN(C)CCCOc1ccc(-c2ccc3ncc4c(c3c2)n(C2CCOCC2)c(=O)n4C)cn1 [AZD0156] (first compound max 1 µM, 7x7, partner max 1 µM) | -0.0049 | 0.0251 | -0.057 | 0.0423 | -0.0459 | -0.0637 | -0.0236 | -0.0143 | -0.0095 | 0.0582 | -0.0707 | 0.0116 | 0.0133 | 0.0592 | -0.081 | -0.0747 | -0.033 | 0.0134 | -0.0038 | -0.0151
CCN(CCO)CCCOc1ccc2c(Nc3cc(CC(=O)Nc4cccc(F)c4)[nH]n3)ncnc2c1 [AZD2811] + O=C(c1cc(Cc2n[nH]c(=O)c3ccccc23)ccc1F)N1CCN(C(=O)C2CC2)CC1 [Olaparib] (first compound max 1 µM, 7x7, partner max 10 µM) | 0.0049 | 0.0288 | 0.0541 | 0.0091 | -0.0657 | -0.031 | -0.0715 | -0.0302 | 0.03 | 0.0255 | 0.0208 | -0.0452 | 0.0244 | 0.0445 | -0.0259 | -0.0091 | -0.0384 | 0.0427 | -0.0071 | 0
CCN(CCO)CCCOc1ccc2c(Nc3cc(CC(=O)Nc4cccc(F)c4)[nH]n3)ncnc2c1 [AZD2811] + C=CCn1c(=O)c2cnc(Nc3ccc(N4CCN(C)CC4)cc3)nc2n1-c1cccc(C(C)(C)O)n1 [AZD1775] (first compound max 1 µM, partner max 1 µM) | -0.0057 | -0.0168 | 0.0205 | 0.0395 | -0.0426 | 0.0191 | 0.0014 | -0.0339 | -0.0538 | -0.0295 | 0.0302 | -0.0731 | 0.0213 | 0.0509 | -0.0671 | -0.0733 | -0.0236 | 0.0233 | -0.0086 | -0.008
CN(CCO)CC[C@H](CSc1ccccc1)Nc1ccc(S(=O)(=O)NC(=O)c2ccc(N3CCC([C@@H](O)c4ccccc4-c4ccc(Cl)cc4)CC3)cc2)cc1S(=O)(=O)C(F)(F)F [AZD4320] + C1CN(CCC1(C(=O)N[C@@H](CCO)C2=CC=C(C=C2)Cl)N)C3=NC=NC4=C3C=CN4 [Capivasertib] (first compound max 1 µM, 7x7, partner max 3 µM) | -0.0317 | -0.0621 | -0.0528 | 0.0407 | -0.0343 | -0.0402 | -0.0908 | -0.0431 | -0.0682 | -0.0148 | -0.0639 | -0.071 | -0.0468 | -0.0503 | -0.0153 | -0.0405 | 0.0472 | -0.039 | -0.0268 | -0.0193
CC(=O)c1c(C)c2cnc(Nc3ccc(N4CCNCC4)cn3)nc2n(C2CCCC2)c1=O [Palbociclib] + CC1(C)CCC(CN2CCN(c3ccc(C(=O)NS(=O)(=O)c4ccc(NCC5CCOCC5)c([N+](=O)[O-])c4)c(Oc4cnc5[nH]ccc5c4)c3)CC2)=C(c2ccc(Cl)cc2)C1 [Venetoclax] (first compound max 10 µM, 7x7, partner max 1 µM) | -0.0113 | -0.0121 | -0.0241 | -0.103 | -0.0405 | -0.0216 | 0.0737 | -0.0895 | 0.017 | -0.0429 | -0.0942 | -0.0178 | -0.0167 | -0.0686 | -0.0624 | -0.019 | -0.0103 | 0 | 0.0119 | -0.0251
Cc1c2c(nn1C)CSCc1cc(n(C)n1)CSc1cc(c3ccccc3c1)OCCCc1c(C(=O)O)n(C)c3c-2c(Cl)ccc13 [AZD5991] + CC1(C)CCC(CN2CCN(c3ccc(C(=O)NS(=O)(=O)c4ccc(NCC5CCOCC5)c([N+](=O)[O-])c4)c(Oc4cnc5[nH]ccc5c4)c3)CC2)=C(c2ccc(Cl)cc2)C1 [Venetoclax] (first compound max 1 µM, 7x7, partner max 1 µM) | 0.0017 | -0.0046 | 0.0812 | -0.0232 | -0.0236 | -0.0376 | 0.0749 | -0.0257 | -0.0438 | 0.0035 | -0.0207 | -0.0217 | -0.0157 | 0.0009 | -0.0383 | -0.0459 | 0.255 | 0.057 | -0.0091 | -0.016
CN(CCO)CC[C@H](CSc1ccccc1)Nc1ccc(S(=O)(=O)NC(=O)c2ccc(N3CCC([C@@H](O)c4ccccc4-c4ccc(Cl)cc4)CC3)cc2)cc1S(=O)(=O)C(F)(F)F [AZD4320] + Cc1cc2ncnn2cc1Nc1ncc2c(n1)n(C1CCOCC1)c(=O)n2C [AZD7648] (first compound max 1 µM, 7x7, partner max 10 µM) | -0.0202 | -0.0172 | -0.0012 | 0.036 | -0.01 | -0.057 | 0.0377 | -0.0718 | -0.0192 | -0.0395 | -0.0222 | 0.0195 | -0.049 | -0.0244 | -0.0474 | -0.0508 | 0.0356 | 0.0058 | -0.0133 | 0.0109
NC1(C(=O)N[C@@H](CCO)c2ccc(Cl)cc2)CCN(c2ncnc3[nH]ccc23)CC1 [Capivasertib] + CC(C)n1c(=O)n(C)c2cnc3cc(F)c(-c4ccc(OCCCN5CCCCC5)nc4)cc3c21 [AZD1390] (first compound max 10 µM, 7x7, partner max 0.3 µM) | -0.0233 | -0.0332 | -0.0464 | -0.0035 | -0.0625 | -0.0488 | -0.0807 | -0.0435 | -0.0791 | -0.0687 | -0.0615 | -0.043 | -0.0304 | -0.0376 | -0.0793 | -0.0812 | -0.0269 | -0.0581 | -0.0216 | -0.0656
COc1cccc(OCCCN)c1-c1cc(Nc2cnc(C#N)cn2)n[nH]1 [Prexasertib] + CCc1c2c(nc3ccc(O)cc13)-c1cc3c(c(=O)n1C2)COC(=O)[C@]3(O)CC [SN-38] (first compound max 1 µM, 7x7, partner max 0.3 µM) | 0.107 | 0.0348 | -0.0015 | -0.0111 | 0.0282 | 0.0215 | 0.0774 | -0.0304 | 0.0283 | 0 | -0.152 | -0.0727 | 0.0373 | -0.0477 | 0.162 | -0.0624 | 0.0073 | 0.104 | 0.0262 | -0.0609
NC1(C(=O)N[C@@H](CCO)c2ccc(Cl)cc2)CCN(c2ncnc3[nH]ccc23)CC1 [Capivasertib] + C[C@@H]1COCCN1C2=NC(=NC(=C2)C3(CC3)[S@](=N)(=O)C)C4=C5C=CNC5=NC=C4 [AZD6738] (first compound max 10 µM, 7x7, partner max 10 µM) | -0.0349 | -0.0167 | -0.0652 | -0.0334 | -0.039 | -0.0582 | 0.0252 | -0.0717 | -0.0316 | -0.0503 | -0.0503 | -0.0575 | -0.0485 | -0.0134 | -0.0397 | -0.0423 | -0.032 | -0.0698 | -0.0719 | -0.0002
Cc1c2c(nn1C)CSCc1cc(n(C)n1)CSc1cc(c3ccccc3c1)OCCCc1c(C(=O)O)n(C)c3c-2c(Cl)ccc13 [AZD5991] + C[C@@H](Nc1cc(F)cc(F)c1)c1cc(C(=O)N(C)C)cc2c(=O)cc(N3CCOCC3)oc12 [AZD8186] (first compound max 1 µM, 7x7, partner max 3 µM) | 0.0492 | -0.014 | 0.0092 | -0.0107 | -0.109 | -0.0209 | -0.039 | -0.0401 | -0.0421 | -0.0206 | -0.0003 | 0.0005 | 0.0164 | 0.0519 | -0.0601 | -0.0595 | 0.0059 | 0.0316 | -0.0036 | 0.0127
